# The source made the active and inactive calls. The rule behind the calls is not given here.
# What was measured:
# [1] = system: HepG2; test: Cytotoxicity against human HepG2 cells assessed as reduction in cell viability by MTT assay; type: functional, cell-based
# [2] = system: Hep 3B2; test: Cytotoxicity against human Hep3B cells assessed as reduction in cell viability by MTT assay; type: functional, cell-based
# [3] = system: A-375; test: Induction of cell cycle arrest in human A-375 cells assessed as accumulation at G0/G1 phase at 8 uM incubated for 24 hrs by PI staining based flow cytometry analysis (reference value: 69.68 %); type: functional
# [4] = system: A-375; test: Induction of cell cycle arrest in human A-375 cells assessed as accumulation at S phase at 7 uM incubated for 24 hrs by PI staining based flow cytometry analysis (reference value: 28.83 %); type: functional
# [5] = system: A-375; test: Induction of cell cycle arrest in human A-375 cells assessed as accumulation at S phase at 8 uM incubated for 24 hrs by PI staining based flow cytometry analysis (reference value: 28.83 %); type: functional
# [6] = system: A-375; test: Induction of cell cycle arrest in human A-375 cells assessed as accumulation at G2/M phase at 7 uM incubated for 24 hrs by PI staining based flow cytometry analysis (reference value: 1.48 %); type: functional
# [7] = system: A-375; test: Downregulation of CDK4 protein expression in human A-375 cells at 6 to 8 uM measured after 12 to 24 hrs by western blot assay; type: functional, cell-based; details: dose 6-8 µM, time 12-24 hrs
# [8] = system: A-375; test: Downregulation of Cyclin D1 protein expression in human A-375 cells at 6 to 8 uM measured after 12 to 24 hrs by western blot assay; type: functional, cell-based; details: dose 6-8 µM, time 12-24 hrs
# [9] = system: A-375; test: Upregulation of p21 accumulation in human A-375 cells at 6 to 8 uM measured after 12 to 24 hrs by western blot assay; type: functional, cell-based; details: dose 6-8 µM, time 12-24 hrs
# [10] = biological target: Tyrosine-protein kinase JAK2 (Homo sapiens) (UniProt O60674); test: Inhibition of JAK2 phosphorylation in human A-375 cells assessed as decrease in phosphorylated JAK2 level at 6 to 8 uM measured after 12 to 24 hrs by Western blot analysis; type: cell-based; details: dose 6-8 µM, time 12-24 hrs
# [11] = biological target: Signal transducer and activator of transcription 3 (Homo sapiens) (UniProt P40763); test: Inhibition of STAT3 phosphorylation in human A-375 cells assessed as decrease in phosphorylated STAT3 level at 6 to 8 uM measured after 12 to 24 hrs by Western blot analysis; type: cell-based; details: dose 6-8 µM, time 12-24 hrs
# [12] = system: A-375; test: Induction of cell cycle arrest in human A-375 cells assessed as accumulation at G2/M phase incubated for 24 hrs in presence of AG490 inhibitor by PI staining based flow cytometry analysis (reference value: 8.87 %); type: functional
# [13] = system: B16; test: Cytotoxicity against mouse B16 cells assessed as reduction in cell viability incubated for 24 hrs by MTT assay; type: functional, cell-based; details: B16, 24 h
# [14] = system: A-375; test: Cytotoxicity against human A-375 cells assessed as decrease in number of adherent cells at 6 to 8 uM incubated for 24 hrs by […] phase contrast microscope analysis; type: functional, cell-based; details: dose 6-8 µM
# [15] = system: B16; test: Cytotoxicity against mouse B16 cells assessed as change in cell morphology with loss of intercellular contacts at 5 to 7 uM incubated for 24 hrs by phase contrast microscope analysis; type: functional, cell-based; details: dose 5-7 µM
# [16] = system: B16; test: Induction of cell cycle arrest in mouse B16 cells assessed as accumulation at S phase at 6 uM incubated for 24 hrs by PI staining based flow cytometry analysis (reference value: 33.46 %); type: functional
# [17] = system: B16; test: Induction of cell cycle arrest in mouse B16 cells assessed as accumulation at G2/M phase at 5 uM incubated for 24 hrs by PI staining based flow cytometry analysis (reference value: 4.70 %); type: functional
# [18] = system: B16; test: Induction of cell cycle arrest in mouse B16 cells assessed as accumulation at G0/G1 phase incubated for 24 hrs by PI staining based flow cytometry analysis (reference value: 56.59 %); type: functional
# [19] = system: B16; test: Induction of cell cycle arrest in mouse B16 cells assessed as accumulation at G2/M phase incubated for 24 hrs in presence of AG490 by PI staining based flow cytometry analysis (reference value: 0.88 %); type: functional
# [20] = system: A-375; test: Induction of apoptosis in human A-375 cells assessed as […] of Bax/Mcl-1 protein level at 6 to 8 uM incubated for 24 hrs by Western blot analysis; type: functional, cell-based; details: dose 6-8 µM
# [21] = system: A-375; test: Induction of apoptosis in human A-375 cells assessed as […] of Bax/Bcl-2 protein level at 6 to 8 uM incubated for 24 hrs by Western blot analysis; type: functional, cell-based; details: dose 6-8 µM
# [22] = system: A-375; test: Induction of autophagy in human A-375 cells assessed as increase in LC3-II expression at 7 uM incubated for 6 to 24 hrs by […]; type: functional, cell-based; details: time 6-24 hrs
# [23] = system: A-375; test: Induction of autophagy in human A-375 cells assessed as decrease in LC3-I /LC3-II ratio at 7 uM incubated for 6 to 24 hrs by […]; type: functional, cell-based; details: time 6-24 hrs
# [24] = system: A-375; test: Inhibition of autophagy in human A-375 cells harbouring mCherry-EGFP-LC3 assessed as increase in number of autophagosomes at 7 uM incubated for 8 to 24 hrs by laser scanning confocal microscopic analysis; type: functional, cell-based; details: time 8-24 hrs, TDE = time-dependent effect
# [25] = system: A-375; test: Inhibition of autophagy in human A-375 cells harbouring mCherry-egfp-LC3 assessed as increase in proportion of autolysosome at 7 uM incubated for 8 to 24 hrs by laser scanning confocal microscopic analysis; type: functional, cell-based; details: time 8-24 hrs, TDE = time-dependent effect
# [26] = system: A-375; test: Induction of autophagy in human A-375 cells assessed as increase in phosphorylated ACC at 7 uM incubated for 6 to 24 hrs by Western blotting analysis; type: functional, cell-based; details: time 6-24 hrs
# [27] = system: B16; test: Induction of apoptosis in mouse B16 cells assessed as chromatin condensation at 5 to 7 uM incubated for 24 hrs by Hoechst 33258 staining based fluorescence microscopy; type: functional, cell-based; details: dose 5-7 µM
# [28] = system: B16; test: Induction of apoptosis in mouse B16 cells assessed as early apoptotic cells at 6 uM measured after 24 hrs by Annexin-V-FITC/PI-staining based flow cytometry (reference value: 0.5 %); type: functional
# [29] = system: B16; test: Induction of apoptosis in mouse B16 cells assessed as late apoptotic cells at 5 uM measured after 24 hrs by Annexin-V-FITC/PI-staining based flow cytometry (reference value: 4.4 %); type: functional
# [30] = system: B16; test: Inhibition of autophagy in mouse B16 cells harbouring mCherry-EGFP-LC3 assessed as increase in number of autophagosomes at 6 uM for 8 to 24 hrs by laser scanning confocal microscopic analysis; type: functional, cell-based; details: time 8-24 hrs
# [31] = system: A-375; test: Induction of apoptosis in human A-375 cells assessed as early apoptotic cells preincubated for 2 hrs with 3-MA followed by compound addition and measured after 24 hrs by Annexin-V-FITC/PI-staining based flow cytometry (reference value: 3.1 %); type: functional
# [32] = system: A-375; test: Induction of apoptosis in human A-375 cells assessed as late apoptotic cells preincubated for 2 hrs with 3-MA followed by compound addition and measured after 24 hrs by Annexin-V-FITC/PI-staining based flow cytometry (reference value: 5.7 %); type: functional
# [33] = system: A-375; test: Inhibition of colony formation in human A-375 cells assessed as reduction in volume of colonies at 6 to 8 uM incubated for 24 hrs followed by replacement with fresh medium and measured after 14 days by crystal violet staining based analysis; type: functional, cell-based; details: dose 6-8 µM
# [34] = system: B16; test: Inhibition of colony formation in mouse B16 cells assessed as reduction in volume of colonies at 5 to 7 uM incubated for 24 hrs followed by replacement with fresh medium and measured after 14 days by crystal violet staining based analysis; type: functional, cell-based; details: dose 5-7 µM
# Sequence of Tyrosine-protein kinase JAK2 (Homo sapiens) (O60674 whole entry): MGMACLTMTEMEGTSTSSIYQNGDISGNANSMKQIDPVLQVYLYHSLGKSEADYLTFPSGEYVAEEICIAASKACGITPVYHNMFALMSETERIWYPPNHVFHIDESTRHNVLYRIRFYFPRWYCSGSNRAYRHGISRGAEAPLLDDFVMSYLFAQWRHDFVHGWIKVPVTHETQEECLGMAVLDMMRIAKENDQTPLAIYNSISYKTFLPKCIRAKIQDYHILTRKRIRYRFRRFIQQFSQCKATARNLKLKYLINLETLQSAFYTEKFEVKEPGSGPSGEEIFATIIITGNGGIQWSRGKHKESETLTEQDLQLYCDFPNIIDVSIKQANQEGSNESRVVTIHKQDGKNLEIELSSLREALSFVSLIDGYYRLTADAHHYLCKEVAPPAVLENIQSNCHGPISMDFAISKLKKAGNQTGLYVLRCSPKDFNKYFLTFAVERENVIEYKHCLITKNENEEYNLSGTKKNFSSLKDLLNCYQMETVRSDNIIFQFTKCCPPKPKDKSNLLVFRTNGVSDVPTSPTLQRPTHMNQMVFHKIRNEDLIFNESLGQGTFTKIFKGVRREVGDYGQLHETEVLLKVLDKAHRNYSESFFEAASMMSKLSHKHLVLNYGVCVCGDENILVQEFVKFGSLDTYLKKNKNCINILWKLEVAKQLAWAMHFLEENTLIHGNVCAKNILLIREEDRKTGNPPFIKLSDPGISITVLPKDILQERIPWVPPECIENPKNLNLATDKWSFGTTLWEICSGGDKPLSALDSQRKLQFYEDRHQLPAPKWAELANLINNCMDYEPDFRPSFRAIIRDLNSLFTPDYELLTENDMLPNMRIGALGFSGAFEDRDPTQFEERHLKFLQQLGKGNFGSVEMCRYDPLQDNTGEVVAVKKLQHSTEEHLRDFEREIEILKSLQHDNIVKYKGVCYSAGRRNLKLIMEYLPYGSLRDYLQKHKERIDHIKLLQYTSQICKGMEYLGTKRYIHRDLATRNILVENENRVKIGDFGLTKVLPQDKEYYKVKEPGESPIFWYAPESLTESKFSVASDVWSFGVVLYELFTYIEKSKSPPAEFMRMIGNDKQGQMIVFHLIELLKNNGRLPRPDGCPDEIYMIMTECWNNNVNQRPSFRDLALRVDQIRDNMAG
# Sequence of Signal transducer and activator of transcription 3 (Homo sapiens) (P40763 whole entry): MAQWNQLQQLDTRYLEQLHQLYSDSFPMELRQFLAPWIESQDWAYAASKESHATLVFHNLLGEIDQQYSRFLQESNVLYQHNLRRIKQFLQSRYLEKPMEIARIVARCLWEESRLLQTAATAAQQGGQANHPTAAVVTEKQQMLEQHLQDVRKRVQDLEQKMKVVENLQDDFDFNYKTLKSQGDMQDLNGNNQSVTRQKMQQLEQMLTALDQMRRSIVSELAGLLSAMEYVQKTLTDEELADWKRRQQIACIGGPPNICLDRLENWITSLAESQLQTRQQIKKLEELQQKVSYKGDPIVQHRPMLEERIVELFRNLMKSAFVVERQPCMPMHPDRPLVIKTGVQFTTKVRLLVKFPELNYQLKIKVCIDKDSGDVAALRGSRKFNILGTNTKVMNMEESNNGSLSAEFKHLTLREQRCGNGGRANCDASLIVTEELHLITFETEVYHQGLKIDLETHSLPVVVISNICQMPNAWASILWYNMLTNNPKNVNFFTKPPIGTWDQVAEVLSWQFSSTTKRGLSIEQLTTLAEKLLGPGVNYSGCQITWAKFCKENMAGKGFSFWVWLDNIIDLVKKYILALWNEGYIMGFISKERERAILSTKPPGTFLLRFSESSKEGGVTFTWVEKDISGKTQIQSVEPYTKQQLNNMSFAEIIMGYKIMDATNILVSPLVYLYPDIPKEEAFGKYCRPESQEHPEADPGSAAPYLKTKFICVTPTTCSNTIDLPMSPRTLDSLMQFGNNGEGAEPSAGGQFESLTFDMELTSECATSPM
compound,measurement,setting,value
COc1ccc2cc1Oc1ccc(cc1)C[C@H]1c3cc(c(OC)cc3CCN1C)Oc1c(OC)c(OC)c(OC)c3c1[C@H](C2)N(C)CC3 [HERNANDEZINE],IC50,[1],7.42 µM
same,IC50,[2],6.71 µM
same,Activity,[3],79.56%
same,Activity,[4],22.36%
same,Activity,[5],19.2%
same,Activity,[6],6.77%
same,Activity,[7],Active
same,Activity,[8],Active
same,Activity,[9],Active
same,inhibition,[10],Active
same,inhibition,[11],Active
same,Activity,[12],4.78%
same,IC50,[13],5.9 µM
same,Activity,[14],Active
same,Activity,[15],Active
same,Activity,[16],23.84%
same,Activity,[17],4.58%
same,Activity,[18],78.59%
same,Activity,[19],8.47%
same,Activity,[20],Active
same,Activity,[21],Active
same,Activity,[22],Active
same,Activity,[23],Active
same,inhibition,[24],Tde
same,inhibition,[25],Tde
same,Activity,[26],Active
same,Activity,[27],Active
same,Activity,[28],12.9%
same,Activity,[29],17.8%
same,inhibition,[30],Active
same,Activity,[31],10.1%
same,Activity,[32],27.1%
same,inhibition,[33],Active
same,inhibition,[34],Active
